Assay results reported in patent US7592419.
Where two headings read alike, the source gives them in different places.

Settings: rcm bond, CH2Cl2, 25.0 °C

For `COC(=O)[C@@H]1CCCCC=CCCCC(C)(C)[C@H](NC(=O)OCc2ccccc2)C(=O)N2C[C@H]3[C@@H]([C@H]2C(=O)N1)C3(C)C`, which ring closure, yield of all isomers (from C=CCCCC[C@H](NC(=O)[C@@H]1[C@@H]2[C@H](CN1C(=O)[C@@H](NC(=O)OCc1ccccc1)C(C)(C)CCCC=C)C2(C)C)C(=O)OC, Grubbs catalyst (Grubbs I), 101.1 mM, 24.0 h) is on record?
The ring closure, yield of all isomers was 44.5%.

Which ring closure, yield of all isomers (from C=CCCC[C@H](NC(=O)[C@@H]1CCCN1C(=O)[C@H](CCC=C)NC(=O)OCC(C)C)C(O)C(=O)NCC(=O)OC, Grubbs catalyst (Grubbs I), 3.0 mM, 65.0 h) does the source give for `COC(=O)CNC(=O)C(O)[C@@H]1CCCC=CCC[C@H](NC(=O)OCC(C)C)C(=O)N2CCC[C@H]2C(=O)N1` (stereo partly shown) here?
Its ring closure, yield of all isomers is 20%.

With `COC(=O)[C@@H]1CCCCC=CCCCC[C@H](NC(=O)OC(C)(C)C)C(=O)N2C[C@H]3[C@@H]([C@H]2C(=O)N1)C3(C)C` as the molecule, how does the ring closure, yield of all isomers (from C=CCCCC[C@H](NC(=O)[C@@H]1[C@@H]2[C@H](CN1C(=O)[C@H](CCCCC=C)NC(=O)OC(C)(C)C)C2(C)C)C(=O)OC, Grubbs I [(Cy3P)2Cl2Ru=CHPh], 100.0 mM, 24.0 h) read?
Its ring closure, yield of all isomers is 48.2%.

With `COC(=O)[C@@H]1CCCCC=CCCCC[C@H](NC(=O)OCc2ccccc2)C(=O)N2C[C@@H]3OC(C)(C)C[C@@H]3[C@H]2C(=O)N1` as the molecule, how does the ring closure, yield of all isomers (from C=CCCCC[C@H](NC(=O)[C@@H]1[C@H]2CC(C)(C)O[C@H]2CN1C(=O)[C@H](CCCCC=C)NC(=O)OCc1ccccc1)C(=O)OC, Grubbs I [(Cy3P)2Cl2Ru=CHPh], 50.0 mM, 24.0 h) read?
Its ring closure, yield of all isomers is 58.9%.
